In ChEMBL document CHEMBL1201862, “PubChem BioAssay data set” (2004):
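48-hour exposure; five concentrations; linearly interpolated endpoints. GI50 is the concentration that inhibits growth by half.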 Activity calls are given as the source filed them. Cut-off read from the data, not from the text of the source: active = GI50 up to about 1.1 µM and inactive = higher.

Tests used:
Assay in all cases: inhibition of tumour cell growth, NCI panel, 48 h
[1] = system: DLD-1
[2] = system: DMS-114
[3] = system: DMS-273
[4] = system: LXFL 529
[5] = system: M19-MEL
[6] = system: SNB-78
[7] = system: RXF 631
[8] = system: XF498
[9] = system: HOP-18

SMILES | GI50 [1] | GI50 [2] | GI50 [3] | GI50 [4] | GI50 [5] | GI50 [6] | GI50 [7] | GI50 [8] | GI50 [9]
CCNC(=O)O/N=C1/C=C2CC[C@@H]3C(CC[C@@]4(C)C3CC[C@@H]4OC(=O)NCC)[C@@]2(C)CC1 (some centres undefined) | 5.9 µM (inactive) | 1.66 µM (inactive) | 1.99 µM (inactive) | 1.79 µM (inactive) | 3.13 µM (inactive) | 2.67 µM (inactive) | – | – | –
O=c1cccccc1NCCCCCCCNc1cccccc1=O | 42.6 µM (inactive) | – | 33.3 µM (inactive) | 16.9 µM (inactive) | 24 µM (inactive) | 47.8 µM (inactive) | 8.02 µM (inactive) | 10.6 µM (inactive) | –
CC[C@](C)(O)C(=O)O[C@H]1C(=O)O[C@@H]2C[C@H]3C(C)=CC(=O)[C@@H](O)[C@]3(C)[C@H]3[C@@]4(O)OC[C@]32[C@@H]1[C@@H](C)[C@H]4O [GLAUCARUBINONE] | – | – | 0.05 µM (active) | < 0.0111 µM (active) | 0.05 µM (active) | 0.0668 µM (active) | 0.543 µM (active) | – | –
N=C(N)N/N=C(/CCN1CCCC1)CC(c1ccccc1)c1c(O)c2ccccc2oc1=O (centres undefined) | > 100 µM (inactive) | > 100 µM (inactive) | – | > 100 µM (inactive) | > 100 µM (inactive) | – | > 100 µM (inactive) | > 100 µM (inactive) | –
C=CCNC(=S)N1c2ccccc2NC(=O)CC1C (centres undefined) | – | > 100 µM (inactive) | > 100 µM (inactive) | > 100 µM (inactive) | > 100 µM (inactive) | > 100 µM (inactive) | – | > 100 µM (inactive) | –
CCOc1c(Cc2ccccc2)c(=O)n2c3ccccc3n3c(=O)n(C)c(=O)c1c23 | > 100 µM (inactive) | > 100 µM (inactive) | > 100 µM (inactive) | > 100 µM (inactive) | > 100 µM (inactive) | > 100 µM (inactive) | > 100 µM (inactive) | > 100 µM (inactive) | > 100 µM (inactive)
O=c1oc2c3ccc4ccccc4c3n(CCN3CCCCC3)c2c2ccccc12 | 30.2 µM (inactive) | > 76 µM (inactive) | 38.3 µM (inactive) | 43.9 µM (inactive) | 25.6 µM (inactive) | 20.9 µM (inactive) | 24.6 µM (inactive) | 21.4 µM (inactive) | > 100 µM (inactive)
OC[C@@H]1CC#C/C=C\C#CC[C@@H]1CO | > 100 µM (inactive) | > 100 µM (inactive) | – | – | > 100 µM (inactive) | > 100 µM (inactive) | – | 0.471 µM (active) | > 100 µM (inactive)
CCOC(=O)/C(=C/c1ccc(OC)c(OC)c1)C(=O)c1ccccc1 | 15.4 µM (inactive) | 15.2 µM (inactive) | – | 12.2 µM (inactive) | 19 µM (inactive) | 17.1 µM (inactive) | – | 14.9 µM (inactive) | –
Cc1ccc(Oc2ccccc2N)cc1 | 35 µM (inactive) | 17.4 µM (inactive) | 32 µM (inactive) | 15.7 µM (inactive) | – | 29 µM (inactive) | > 100 µM (inactive) | 17.8 µM (inactive) | > 100 µM (inactive)
CN(C)CC1CCCC/C1=N/OC(=O)c1ccc(Cl)cc1 (centres undefined) | > 100 µM (inactive) | – | > 100 µM (inactive) | > 100 µM (inactive) | > 100 µM (inactive) | > 100 µM (inactive) | – | > 100 µM (inactive) | > 100 µM (inactive)
CC1C(=O)N(C)C2(CO)C(=O)O[C@H](C)C12O (some centres undefined) | > 100 µM (inactive) | > 100 µM (inactive) | – | – | > 100 µM (inactive) | > 100 µM (inactive) | – | – | > 100 µM (inactive)
Cc1[nH]c2ccccc2c1CC/C(=N\Nc1ccccc1)c1ccccc1 | > 100 µM (inactive) | – | > 100 µM (inactive) | – | – | > 100 µM (inactive) | > 100 µM (inactive) | 78.2 µM (inactive) | –
Cn1c(=O)c2nc(-c3ccc(Cl)cc3)oc2n(C)c1=O | > 100 µM (inactive) | > 100 µM (inactive) | > 100 µM (inactive) | > 100 µM (inactive) | > 100 µM (inactive) | > 100 µM (inactive) | – | > 100 µM (inactive) | > 100 µM (inactive)
Cc1ccc(S(=O)OC2c3ccccc3Cc3ccccc32)cc1 (centres undefined) | 22.9 µM (inactive) | 20.2 µM (inactive) | 17.5 µM (inactive) | 16.4 µM (inactive) | 21.1 µM (inactive) | 19.9 µM (inactive) | 17.2 µM (inactive) | 15.2 µM (inactive) | 24.8 µM (inactive)
Oc1cc(-c2cccc(Br)c2)nc2cc3c(cc12)OCO3 | 3.16 µM (inactive) | 2.85 µM (inactive) | 4.37 µM (inactive) | 2.26 µM (inactive) | 4.37 µM (inactive) | 3.37 µM (inactive) | – | 4.16 µM (inactive) | 15.7 µM (inactive)
C/N=C(\SC)N(C)c1nc(=[N+](C)C)ss1.[O-][Cl+3]([O-])([O-])[O-] | – | – | > 100 µM (inactive) | 58.6 µM (inactive) | – | > 100 µM (inactive) | 2.28 µM (inactive) | 32.6 µM (inactive) | –
COC(=O)NN1C(C)=C(C(=O)OC)C2(C#N)C(C(=O)OC)=C(C)N(NC(=O)OC)C12N (centres undefined) | > 100 µM (inactive) | > 100 µM (inactive) | > 100 µM (inactive) | > 100 µM (inactive) | > 100 µM (inactive) | > 100 µM (inactive) | > 100 µM (inactive) | > 100 µM (inactive) | > 100 µM (inactive)
C#CC[C@]12CC(=O)CC[C@H]1CC(=O)C2 | > 100 µM (inactive) | – | > 100 µM (inactive) | > 100 µM (inactive) | > 100 µM (inactive) | > 100 µM (inactive) | > 100 µM (inactive) | – | > 100 µM (inactive)
CCCCCCCC/C=C1\CCC(CN2CCOCC2)C1=O (centres undefined) | 2.8 µM (inactive) | 6.41 µM (inactive) | – | 4.54 µM (inactive) | 8.65 µM (inactive) | 10.5 µM (inactive) | 8.95 µM (inactive) | 14.2 µM (inactive) | 13.1 µM (inactive)
